Experimental findings from patent publication US7405211B2, “Therapeutic morpholino-substituted compounds” (AstraZeneca AB, priority 2000, dated 2008) are described below.

Test [1] deals with PI 3-kinase immunoprecipitated from human platelets. Briefly: In vitro PI 3-kinase assay (32P incorporation into PI). It is filed as biochemical. As to conditions: PI 3-kinase from human platelets, PI substrate. As to the method: The effect of TGX-25, TGX-33, TGX-37, TGX-40, TGX-41, TGX-57, TGX-84, TGX-90, TGX-93, TGX-98, TGX-99, TGX-101, TGX-106, TGX-107, TGX-108, TGX-109, TGX-111, TGX-112, TGX-113, TGX-115, TGX-120, TGX-121, TGX-123, TGX-124, TGX-126, TGX-127, TGX-130 or TGX-131on PI 3-kinase activity was determined using an in vitro PI 3-kinase assay. This assay was performed using PI 3-kinase immunoprecipitated from human platelets as the enzyme and PI as the substrate. The PI 3-kinase activity was quantitated by measuring the enzymatic incorporation of [^32P] into PI, forming PI([^32P]-3)P, as previously described (Susa et al., 1992, The Journal of Biological Chemistry 267(32):22951-22956.
Washed human platelets were lysed in Triton X-100 lysis buffer (10 mM Tris, pH 7.4, 1% Triton X-100, 2 mM EDTA, 1 mM PMSF) for 30 minutes. The Triton X-100 insoluble fraction was removed by centrifugation of the cell lysates at 15,000 g for 10 minutes. PI 3-kinase was immunoprecipitated by mixing 500 μg of the cell lysate with 1 μg of a rabbit anti-rat antibody against the p85/110 form of PI 3-kinase and 30 μl of 50% Protein A-sepharose beads for 2 hours at 4° C. The Protein A-sepharose-bound PI 3-kinase was isolated by pelleting the beads at 15,000 g for 5 seconds, and washing three times with ice-old Triton X-100 lysis buffer followed by four washes with PI 3-kinase assay buffer (20 mM HEPES, pH 7.4, 1 mM EGTA, 5 mM MgCl2).
PI stored in CHCl3 was dried under N2, resuspended in the lipid buffer (50 mM HEPES, pH 7.2, 1 mM EDTA) at a final concentration of 330 μg/ml, and sonicated for 6 minutes on ice. PI([^32P]-3)P was generated by mixing the immunoprecipitated PI 3-kinase for 20 minutes with 40 μl of the PI, 10 μl of ATP (1 mM) and ^32P-r-ATP (0.5 μCi, 1 μCi/nmol), 10 μl of 10× kinase buffer, in a final assay volume of 100 μl adjusted with H2O. TGX-25, TGX-33, TGX-37, TGX-40, TGX-41, TGX-57, TGX-84, TGX-90, TGX-93, TGX-98, TGX-99, TGX-101, TGX-106, TGX-107, TGX-108, TGX-109, TGX-111, TGX-112, TGX-113, TGX-115, TGX-120, TGX-121, TGX-123, TGX-124, TGX-126, TGX-127, TGX-130 or TGX-131 was preincubated with the PI 3-kinase for 5 minutes prior to the addition of ATP. The assay was terminated with 100 μl of 1 N HCl, and the PI([^32P]-3)P product extracted with 200 μl chloroform:methanol (1:1) and 500 μl 2 M KCl. The PI([^32P]-3)P in the chloroform phase was resolved by thin layer chromatography using a solvent system containing CHCl3:MeOH:HAC:H2O (43:38:5:7) (v:v:v:v), and visualized by autoradiography. The PI([^32P]-3)P spots were then scraped off from the TLC plates, deacylated with 1 ml methylamine:butanol:methanol (42:9:47) (v:v:v) for 4 hours at 53° C., and quantitated using a liquid scintillation counter (LKB 1209 RackBETA).

A further test has as its system platelets. Briefly: Flow-based reconstitution assay: platelet adhesion to vWf-coated glass microslides. As to conditions: 30 min pretreatment, shear rate 1800 s^−1. It is filed as cell-based. As to the method: The effect of TGX-40 on platelet adhesion was examined using a flow-based adhesion assay. Washed platelets were pretreated with 10, 25, or 50 μM TGX-40, or control buffer (0.1% DMSO) for 30 minutes at 37° C. prior to reconstitution with red blood cells to a hematocrit of 50%. The platelets and reconstituted red blood cells were perfused through vWf-coated glass microslides for 1 minute at a shear rate of 1800 s^−1. Non-adherent cells were removed by washing for 10 minutes at 1800 s^−1 and the number of adherent platelet were quantitated and expressed as the mean±SEM. As illustrated graphically in FIG. 1, TGX40 inhibited the ability of platelets to adhere in a dose-dependent manner, showing a decrease of 51, 67 and 86% in platelet adhesion when platelets were pretreated with 10, 25, and 50 μM TGX-40.

Test [2] has as its system platelet thrombus formation. Briefly: Whole-blood flow assay: platelet thrombus formation on vWf matrix (platelet LDH). It is filed as cell-based. As to conditions: shear rate 1800 s^−1. As to the method:
The inhibitory effect of TGX-40 on platelet thrombus formation was examined using a whole-blood flow assay, since thrombi formed by washed platelets are small and poorly reproducible. Anticoagulated whole blood was incubated with 50, 100, or 200 μM TGX-40, or control buffer (0.1% DMSO) for 30 minutes with gentle rocking prior to perfusion through vWf-coated glass microslides for 2 minutes at a shear rate of 1800 s^−1. Non-adherent platelets were removed by washing for 10 minutes at 1800 s^−1, and adherent erythrocytes were lysed with 1% ammonium oxalate. The level of thrombus formation was quantitated indirectly by measuring platelet LDH (U/L) levels in the whole cell lysates by spectrophotometry. Following a 2-minute perfusion of whole blood, platelet-rich thrombi were observed over the surface of the microslide. […] As illustrated graphically in FIG. 2, pretreatment of whole blood with 50, 100, and 200 μM TGX-40 led to a decrease of 25, 53, and 80% in thrombus formation relative to control.

In test [3] the test system is rats producing regular cyclic flow reductions (CFRs). Briefly: Animal model of internal carotid artery occlusion (Folts model, cyclic flow reductions). As to conditions: rat. It is filed as in vivo. An excerpt:
The inhibitory effect of TGX-40 was examined in the well established animal model of arterial thrombosis of Folts et al., 1982, Circulation 65:248-255. This model is used to investigate the effects of antithrombotic drugs on clotting time in vivo in response to a crush injury followed by arterial stenosis.
The carotid artery of an anesthetized rat is dissected out, and an electromagnetic flow probe is placed around the artery to measure blood flow. Proximal to the flow probe, the artery is clamped with surgical forceps covered with silicone tubing to cause intimal and medial damage to the vessel wall. A ligature, or plastic cylinder of appropriate inside diameter is laced around the artery to produce a 70% reduction in arterial diameter.
Platelets aggregate in the area of the stenosed and damaged arterial vessel, gradually forming an occlusive platelet thrombus, seen as a decrease in blood flow. As the thrombus forms, blood pressure increases, causing the thrombus to fragment and embolize distal to the stenosed site. […] This causes a sudden restoration of blood flow. Platelets again aggregate in the area of the stenosed and damaged arterial vessel, repeating the thrombus-embolization pattern. […]
TGX-40 was administered at doses of 1.6 mg/kg and 3.2 mg/kg via the jugular vein and the stabilization of blood flow was recorded.

Test [4] has as its system K562 (leukaemia derived) and U937 (moncytic) cell lines. Briefly: Cell proliferation assay. It is filed as cell-based. As to conditions: 20 μM, 4 day incubation. As to the method: The anti-proliferative activity of the compounds of this invention from all three chemical classes was determined using K562 (leukaemia derived) and U937 (moncytic) cell lines. The cytotoxic activity of the compounds was monitored over four days by counting cell number and determining cell viability using a colourimetric assay metabolic activity.

Another test deals with PI3K α/β isoforms. Briefly: In vitro enzyme assay PI3K α/β. It is filed as biochemical. Conditions: immunoprecipitated from platelet lysate. The protocol:
(§1) In vitro enzyme assays were conducted as a primary screen to determine drug candidate isoform affinity and specificity.
(§2) The α and β isoforms of the PI3K were immunoprecipitated from a platelet lysate using an antibody that recognised the p85 regulatory subunit common to both forms of the enzyme. The γ isoform was produced as a recombinant protein in the Thrombogenix laboratories. […] Standard phosphorylation assays using phosphatidylinositol and ^32P were used to measure the enzyme activity in the immunoprecipates in the presence or absence of an inhibitor. Enzyme activity was determined over a range of inhibitor concentrations to establish an IC50 value.

The next test deals with T1, PI3K γ (Homo sapiens, UniProt P48736).
T1 construct: made in house
Briefly: In vitro enzyme assay PI3K γ (recombinant). As to conditions: recombinant γ isoform. It is filed as biochemical. As to the method: as §1, §2

In the next test the target is T2, PI4K.
T2 construct: PI4K was isolated from platelets in a similar manner using a PI4K specific antibody
In words: In vitro enzyme assay PI4K. It is filed as biochemical. As to conditions: PI4K isolated from platelets; read-out: IC50 against PI4K. As to the method:
In vitro enzyme assays were conducted as a primary screen to determine drug candidate isoform affinity and specificity. The affinity of two leading compounds of the quinolone series (TGX84 and TGX155) for a closely related enzyme family, PI4K, was also determined to maximise compound specificity and therefore minimise potential adverse biochemical events.
The α and β isoforms of the PI3K were immunoprecipitated from a platelet lysate using an antibody that recognised the p85 regulatory subunit common to both forms of the enzyme. The γ isoform was produced as a recombinant protein in the Thrombogenix laboratories. PI4K was isolated from platelets in a similar manner using a PI4K specific antibody. Standard phosphorylation assays using phosphatidylinositol and ^32P were used to measure the enzyme activity in the immunoprecipates in the presence or absence of an inhibitor. Enzyme activity was determined over a range of inhibitor concentrations to establish an IC50 value.

Another test deals with tyrosine kinase EGF (Homo sapiens, UniProt P00533). In words: Enzyme screening assay: tyrosine kinase EGF. It is filed as biochemical. From the text: (§3) The two leading compounds of the quinolone series, TGX155 and TGX84 were screened for activity against seven enzymes related to PI3K in function or substrate specificity, viz: ATPase, PDE4, tyrosine kinases EGF and fyn, protein kinases A and C, and tyrosine phosphatase.

Another test has as its target tyrosine kinase fyn (Homo sapiens, UniProt P06241). In words: Enzyme screening assay: tyrosine kinase fyn. It is filed as biochemical.
Text: as §3

T1 sequence (P48736 whole entry, species assumed): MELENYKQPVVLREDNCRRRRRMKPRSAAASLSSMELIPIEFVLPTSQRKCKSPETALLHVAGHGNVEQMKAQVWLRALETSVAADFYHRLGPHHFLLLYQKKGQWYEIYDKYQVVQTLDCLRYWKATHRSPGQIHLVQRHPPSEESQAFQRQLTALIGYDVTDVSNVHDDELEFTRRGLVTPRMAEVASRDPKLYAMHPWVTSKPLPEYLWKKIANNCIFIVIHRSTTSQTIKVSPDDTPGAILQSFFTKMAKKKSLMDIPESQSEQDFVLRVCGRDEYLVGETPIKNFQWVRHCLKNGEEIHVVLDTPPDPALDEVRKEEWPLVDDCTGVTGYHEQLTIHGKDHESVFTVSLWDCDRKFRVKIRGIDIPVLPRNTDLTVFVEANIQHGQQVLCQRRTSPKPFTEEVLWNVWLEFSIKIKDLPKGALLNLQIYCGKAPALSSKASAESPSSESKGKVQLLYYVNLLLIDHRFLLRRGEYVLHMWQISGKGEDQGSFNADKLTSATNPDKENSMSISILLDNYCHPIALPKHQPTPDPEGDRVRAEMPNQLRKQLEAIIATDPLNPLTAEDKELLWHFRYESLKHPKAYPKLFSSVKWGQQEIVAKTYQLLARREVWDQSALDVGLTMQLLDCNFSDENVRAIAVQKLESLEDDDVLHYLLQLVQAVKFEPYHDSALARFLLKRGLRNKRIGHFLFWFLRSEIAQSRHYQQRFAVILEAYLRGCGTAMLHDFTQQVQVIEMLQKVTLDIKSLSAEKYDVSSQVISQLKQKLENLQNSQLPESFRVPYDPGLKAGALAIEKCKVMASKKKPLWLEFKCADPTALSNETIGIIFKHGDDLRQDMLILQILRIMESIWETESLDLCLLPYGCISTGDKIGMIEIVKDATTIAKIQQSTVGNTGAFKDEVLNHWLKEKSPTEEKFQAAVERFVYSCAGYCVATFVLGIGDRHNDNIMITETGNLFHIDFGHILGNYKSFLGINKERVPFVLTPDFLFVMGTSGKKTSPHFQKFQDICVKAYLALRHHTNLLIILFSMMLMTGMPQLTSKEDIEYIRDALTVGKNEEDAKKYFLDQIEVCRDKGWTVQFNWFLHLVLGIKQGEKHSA
tyrosine kinase EGF, sequence (P00533 25-1210): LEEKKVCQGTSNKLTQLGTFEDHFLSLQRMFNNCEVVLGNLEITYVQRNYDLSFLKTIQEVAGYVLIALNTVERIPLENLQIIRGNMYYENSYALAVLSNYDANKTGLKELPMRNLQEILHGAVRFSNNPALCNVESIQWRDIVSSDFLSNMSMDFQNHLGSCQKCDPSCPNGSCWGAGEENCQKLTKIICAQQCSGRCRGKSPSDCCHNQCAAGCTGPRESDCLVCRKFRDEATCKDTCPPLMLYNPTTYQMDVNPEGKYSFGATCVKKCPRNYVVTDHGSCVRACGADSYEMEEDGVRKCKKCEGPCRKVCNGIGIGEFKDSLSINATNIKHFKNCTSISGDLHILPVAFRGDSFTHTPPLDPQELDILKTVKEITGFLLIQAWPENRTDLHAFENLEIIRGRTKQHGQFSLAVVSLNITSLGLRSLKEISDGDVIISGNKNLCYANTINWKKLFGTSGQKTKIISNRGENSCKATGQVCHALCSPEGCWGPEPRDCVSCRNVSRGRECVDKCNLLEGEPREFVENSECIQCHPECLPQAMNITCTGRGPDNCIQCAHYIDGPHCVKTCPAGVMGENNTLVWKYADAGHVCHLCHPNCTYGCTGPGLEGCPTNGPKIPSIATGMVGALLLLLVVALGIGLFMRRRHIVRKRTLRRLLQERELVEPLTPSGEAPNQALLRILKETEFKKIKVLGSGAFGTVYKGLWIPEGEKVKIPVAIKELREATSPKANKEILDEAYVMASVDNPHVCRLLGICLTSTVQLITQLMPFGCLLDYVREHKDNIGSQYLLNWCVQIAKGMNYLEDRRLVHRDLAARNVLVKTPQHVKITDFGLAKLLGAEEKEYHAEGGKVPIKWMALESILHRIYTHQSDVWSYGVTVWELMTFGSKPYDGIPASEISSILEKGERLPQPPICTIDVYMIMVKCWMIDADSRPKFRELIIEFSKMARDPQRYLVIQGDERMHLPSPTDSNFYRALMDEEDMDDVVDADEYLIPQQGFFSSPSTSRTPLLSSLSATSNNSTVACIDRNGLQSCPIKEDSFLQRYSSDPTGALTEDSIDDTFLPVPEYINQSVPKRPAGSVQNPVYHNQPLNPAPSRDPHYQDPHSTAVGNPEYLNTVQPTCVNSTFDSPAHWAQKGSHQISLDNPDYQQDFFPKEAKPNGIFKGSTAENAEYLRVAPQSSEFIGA
tyrosine kinase fyn, sequence (P06241 whole entry): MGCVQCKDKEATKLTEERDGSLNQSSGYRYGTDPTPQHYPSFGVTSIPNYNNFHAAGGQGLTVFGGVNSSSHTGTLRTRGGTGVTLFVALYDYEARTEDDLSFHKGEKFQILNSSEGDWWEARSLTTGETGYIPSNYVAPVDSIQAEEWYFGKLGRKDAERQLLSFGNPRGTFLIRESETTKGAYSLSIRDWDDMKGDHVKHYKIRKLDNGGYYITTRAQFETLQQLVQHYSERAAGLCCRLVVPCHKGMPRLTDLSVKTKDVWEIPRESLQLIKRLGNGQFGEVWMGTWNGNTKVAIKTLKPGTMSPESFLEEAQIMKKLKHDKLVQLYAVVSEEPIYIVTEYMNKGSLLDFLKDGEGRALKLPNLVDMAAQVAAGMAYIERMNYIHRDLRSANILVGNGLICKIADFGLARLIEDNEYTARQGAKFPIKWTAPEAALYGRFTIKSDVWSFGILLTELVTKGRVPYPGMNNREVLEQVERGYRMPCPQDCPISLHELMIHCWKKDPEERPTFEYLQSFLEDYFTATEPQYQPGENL

Broadly, the IC50 is the concentration that gives 50% inhibition. As to `O=c1cc(N2CCOCC2)nc2c(Cc3ccccc3)cccn12` [TGX-40], in [1], the IC50 is approximately 1500 nM. Moreover, the results for the “decrease in platelet adhesion” value in the test with platelets (10 μM), with platelets (25 μM) and in the test on platelets (50 μM) were 51%, 67% and 86%, respectively. The “decrease in thrombus formation relative to control” value is reported as 25% in [2] (50 μM), 53% in test [2] (100 μM) and 80% in test [2] (200 μM). The “treated animals returned to baseline within 10 minutes” value in test [3] (1.6 mg/kg via the jugular vein) and in test [3] (3.2 mg/kg via the jugular vein) was 90% each time. In addition, the “% Cells remaining” value in test [4] is 75%.

`Cc1cc(N[C@H](C)c2ccccc2)c2nc(N3CCOCC3)cc(=O)n2c1` [TGX-123] registered an IC50 in test [1] of 200 nM. In addition, in test [4], the “% Cells remaining” value was found to be 10%.

In the case of `Cc1cc(NCc2ccccc2)c2nc(N3CCOCC3)cc(=O)n2c1` [TGX-126], the IC50 in test [1] is 50 nM; against PI3K α/β isoforms, 50 nM; on PI3K γ, more than 10 µM.

As for `Cc1cccc(Oc2cccc3c(=O)cc(N4CCOCC4)[nH]c23)c1` [TGX-127], the IC50 in test [1] is 50 nM; at PI3K α/β isoforms, 50 nM; on PI3K γ, 5 to 10 µM.

As to `O=c1cc(N2CCOCC2)oc2c(Oc3ccccc3)cccc12` [TGX-134, 2-(4-morpholinyl)-8-phenoxy-4H-1-benzopyran-4-one], the results for the 50% inhibitory concentration (IC50) (in test [1]; on PI3K α/β isoforms; on PI3K γ) were 100 nM, 100 nM and 0.2 µM, respectively.

As for `COc1ccccc1CNc1cc(C)cn2c(=O)cc(N3CCOCC3)nc12` [TGX-137], the half-maximal inhibitory concentration (IC50) in test [1] was determined as 50 nM; against PI3K α/β isoforms, 50 nM; at PI3K γ, 5 µM.

For the molecule `O=c1cc(N2CCOCC2)[nH]c2c(Oc3ccccc3F)cccc12` [TGX-143], the values for the 50% inhibitory concentration (IC50) (in test [1]; on PI3K α/β isoforms; on PI3K γ) were 150 nM, 150 nM and 2 µM, respectively.

Turning to `Cc1cc(F)ccc1Oc1cccc2c(=O)cc(N3CCOCC3)[nH]c12` [TGX-155, 8-(4′-Fluoro-2′-methylphenoxy)-2-morpholino-4-quinolone], the half-maximal inhibitory concentration (IC50) in [1] is 20 nM; on PI3K α/β isoforms, 20 nM; at PI3K γ, 5 µM; at PI4K it was 100 µM; against tyrosine kinase EGF it was more than 100 µM; on tyrosine kinase fyn, more than 100 µM.

For `Cc1cc(NCc2ccccc2Cl)c2nc(N3CCOCC3)cc(=O)n2c1` [TGX-167], the figures for the concentration for half-maximal inhibition (IC50) (in test [1]; against PI3K α/β isoforms; on PI3K γ) were 50 nM, 50 nM and 5 to 10 µM, respectively. In addition, the “% Cells remaining” value in test [4] worked out at 1.5%.

Consider `Cc1cc(Nc2ccc(O)cc2C)c2nc(N3CCOCC3)cc(=O)n2c1` [TGX-174], for which the figures for the IC50 (in test [1]; at PI3K α/β isoforms; on PI3K γ) were 100 nM, 100 nM and 5 µM, respectively.

For `Cc1cc(CNc2ccc(F)cc2C)c2nc(N3CCOCC3)cc(=O)n2c1` [TGX-186], in test [4], the “% Cells remaining” value is 1.5%.
